Experimental data as given in PubChem BioAssay (NCI).
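Growth conditions: 96-well plates. Treatment: test compound, 48 hours, 5 concentrations. Analysis: linear interpolation between bracketing concentrations; unreached endpoints set to highest concentration. The concentration for full growth arrest is given as TGI.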 *1 amine or outer side, *2 acyl side, *3 side chain or, on linkers, in order; H or OH if unused. Where a SMILES comes first, the peptide text is derived from it. [ ]: non-standard residue; d: D form. ξ: configuration not given here. X22 = O=C(C(CC(O)CO)O[*:1])[*:2]; Ile(3ξ) = CCC(C)[C@H](N)C(=O)O; NMeV = CN[C@H](C(=O)O)C(C)C; NMeA = CN[C@@H](C)C(=O)O; βAla = NCCC(=O)O

Legend:
Assay in all cases: NCI-60 cell line screen, 48 h
[1] = system: 786-0 renal
[2] = system: ACHN renal
[3] = system: CAKI-1 renal
[4] = system: CCRF-CEM leukemia
[5] = system: HCC-2998 colon
[6] = system: HCT-116 colon
[7] = system: HOP-62 NSCLC
[8] = system: HOP-92 NSCLC
[9] = system: HT29 colon
[10] = system: IGROV1 ovarian
[11] = system: NCI-H23 lung
[12] = system: NCI-H460 lung
[13] = system: SK-OV-3 ovarian
[14] = system: SN12C renal
[15] = system: COLO 205 colon
[16] = system: RXF 393 renal
[17] = system: NCI/ADR-RES ovarian
[18] = system: PC-3 prostate
[19] = system: HS 578T breast
[20] = system: MDA-N

SMILES | TGI [1] [µM] | TGI [2] [µM] | TGI [3] [µM] | TGI [4] [µM] | TGI [5] [µM] | TGI [6] [µM] | TGI [7] [µM] | TGI [8] [µM] | TGI [9] [µM] | TGI [10] [µM] | TGI [11] [µM] | TGI [12] [µM] | TGI [13] [µM] | TGI [14] [µM] | TGI [15] [µM] | TGI [16] [µM] | TGI [17] [µM] | TGI [18] [µM] | TGI [19] [µM] | TGI [20] [µM]
COc1c(C)c(O)c2c(c1C)OC(c1ccccc1)CC2=O (configuration not stated) | > 100 | > 100 | > 100 | > 100 | > 100 | > 100 | > 100 | > 100 | > 100 | > 100 | > 100 | > 100 | > 100 | > 100 |  |  |  |  |  | 
CCOC(=O)c1c2ccc(/C=C/c3ccccc3)ccc-2c(C(=O)OCC)c1N | > 100 | > 100 | > 100 | > 100 | > 100 | > 100 |  | > 100 | > 100 | > 100 | > 100 | > 100 | > 100 |  | > 100 | > 100 |  |  |  | 
CCSc1nnc(-c2ccccc2)nc1Cc1ccc(OC)cc1 | > 100 | > 100 |  | > 100 | > 100 | > 100 | > 100 | > 100 | > 100 | > 100 | > 100 | > 100 | > 100 | > 100 | > 100 | > 100 |  |  |  | 
Cc1c/c(=N/NC(=O)c2ccncc2)n2nc(N)sc2n1 | > 100 | > 100 | > 100 | > 100 | > 100 | > 100 | > 100 | > 100 | > 100 | > 100 | > 100 | > 100 | > 100 | > 100 | > 100 | > 100 | > 100 | > 100 |  | 
CC(=O)N(CCCCNC(=O)C(F)(F)F)CCCNC(=O)C(F)(F)F | > 100 | > 100 |  | > 100 | > 100 | > 100 | > 100 | > 100 | > 100 | > 100 | > 100 | > 100 | > 100 | > 100 | > 100 | > 100 | > 100 | > 100 | > 100 | 
CCOC(=O)C1=C(c2ccccc2)N(C(C)=O)Cc2ccccc21 | > 100 | 66.7 |  | 78.7 | > 100 | 30.2 | 44.3 | 20.7 | 33.8 | > 100 | 34.5 | 41.3 | > 100 | 77.1 | 32 | 68.2 |  |  |  | 
CC(=O)NC(CCCNC(=O)OCc1ccccc1)C(=O)O (configuration not stated) | > 100 | > 100 | > 100 | > 100 | > 100 | > 100 | > 100 | > 100 | > 100 | > 100 | > 100 | > 100 | > 100 | > 100 | > 100 | > 100 |  |  |  | 
CSc1nc2nc(C(O)C(O)C(O)CO)cnc2c(=O)[nH]1 (configuration not stated) | > 100 | > 100 | > 100 | > 100 | > 100 | > 100 | > 100 |  | > 100 | > 100 | > 100 | > 100 | > 100 | > 100 | > 100 | > 100 |  |  |  | 
N#C/C(C(=O)Nc1ccc(Cl)cc1)=C(/N)N1CCOCC1 | > 100 | > 100 | > 100 | > 100 | > 100 | > 100 | > 100 | > 100 | > 100 | > 100 | > 100 | > 100 | > 100 | > 100 | > 100 |  | > 100 | > 100 |  | > 100
C=C(C)CC(C)(c1cc2ccccc2n1C)N1CCOCC1 (configuration not stated) | > 100 | > 100 | > 100 | > 100 | > 100 | > 100 | > 100 | > 100 | > 100 | > 100 | > 100 | > 100 | > 100 | > 100 | > 100 | > 100 |  |  |  | 
CCC(C)[C@@H]1NC(=O)[C@@H]2CCCN2C(=O)C(CC(O)CO)OC(=O)CCNC(=O)[C@H](C)N(C)C(=O)[C@H](C(C)C)N(C)C1=O (some centres not stated) (cyclo([Ile(3ξ)][NMeV][NMeA][βAla][X22]P)) | > 100 |  | > 100 | > 100 |  | > 100 | > 100 | > 100 | > 100 | > 100 | > 100 | > 100 | > 100 | > 100 | > 100 | > 100 |  |  |  | 
CC(=O)O[C@H]1C(=O)[C@@]2(C)C(C(OC(=O)c3ccccc3)[C@]3(O)CC(OC(=O)C(O)C(NC(=O)c4ccccc4)c4cccc(Cl)c4)C(C)=C1C3(C)C)[C@]1(OC(C)=O)CO[C@@H]1C[C@@H]2O (some centres not stated) | > 10 | > 10 | > 10 | > 10 | > 10 | > 10 | > 10 |  | > 10 | > 10 | > 10 | > 10 | > 10 | > 10 | > 10 |  | > 10 | > 10 |  | 3.46
CCOC(=O)CC(NCc1ccc(N=Cc2nc3ccc(C(F)(F)F)cc3nc2-c2ccccc2)cc1)C(=O)OCC (configuration not stated) | > 100 | > 100 | > 100 | > 100 | > 100 | > 100 | > 81.7 | > 100 | > 100 | > 100 | > 100 | > 100 | > 100 | > 100 | > 100 | 56 |  |  |  | 
COC(=O)C(Cc1nc2ccccc2[nH]c1=O)C(=O)C(=O)Nc1ccc(F)cc1 (configuration not stated) | 58.8 | > 100 | > 100 | > 100 | > 100 | > 100 | > 100 | 56.4 | > 100 | > 100 | > 100 | > 100 | > 100 | > 100 | > 100 | 47.1 |  |  |  | 
